The nature of the data set: In vitro PGE-1 elution from coated stents overlaid with a permeable polymer membrane, measured by HPLC. In kind it is physicochemical. How it is done: Various materials presently used in pharmaceutical preparations as solubilizers, crystallization inhibitors, suspension stabilizers and lyophilization agents were mixed with PGE-1. The mixtures were dissolved in solvent systems composed of ethanol, chloroform, water, or mixtures thereof. Prior to coating, stents (provided by different stent manufacturers) were cleaned by sonification in absolute ethanol for thirty minutes, and dried. Each stent was weighed before and after coating. The amount of PGE-1 in the coating solution was determined by high performance liquid chromatography analysis (HPLC), and used to calculate the percent by weight of PGE-1 on the stent. To confirm this value, the coating was dissolved (from the stent) and the PGE-1 content analyzed by HPLC.
Drug coatings on the stents were assessed using scanning electron microscopy (SEM) for: (a) smoothness, (b) uniformity, and (c) lack of cracking. Stents that met these criteria, were overlaid with a thin membrane of non-erodable polymer matrix to retard the release of PGE-1 from the surface of the stents. Vapor-deposition of the polymer matrix was carried out according to the manufacturer's protocol, and the thickness of the polymer matrix membrane was measured using a Tencor device.
Using the most desirable coating combination, twenty coronary stents were coated with either 100 micrograms or 250 micrograms of PGE-1, and overlaid with the polymer matrix membrane. Five stents from each drug concentration were expanded by insertion of a balloon catheter. The stents were examined by SEM after deposition of the pharmaceutical layer 14, after applying the membrane 16, and after expansion of the stents 12.
PGE-1 elution profiles were determined for each group of stents 12. In vitro PGE-1 release curves were performed using HPLC. Drug elution profiles were measured in phosphate buffered saline (pH 7.4) using a LabQuake 360° degree rotator, at ambient temperature. At each time point, the stents were removed from the one milliliter sample (typically, after 24 hours) and transferred to the next aliquot. HPLC analysis of the eluent was performed using a Waters Alliance system equipped with a 996 photodiode array detector.
HPLC Program Conditions/Settings:
Column: 4.6 mm×150 mm Reverse Phase C18
Photo-diode array UV detector set to scan 190 to 300 nm
Solvent system: 35% Acetonitrile/65% water with 0.1% acetic acid
In Example 2 a second set of twenty stents were coated as described above, except the polymer membrane overcoat 16 was twice the thickness as the former.

Experimental findings from US20050273177A1, “Prosthetic device having drug delivery properties” (priority 2004, published 2005) are described below.

`CCCCC[C@H](O)/C=C/[C@H]1[C@H](O)CC(=O)[C@@H]1CCCCCCC(=O)O` [PGE-1, prostaglandin E-1]: the “Period of initial burst of PGE-1 release” value (FIGS. 2A and 2B, thinner membrane, 100 or 250 μg PGE-1) is given as 48-96 hours. In addition, the “Duration of slow, sustained release of the drug” value (FIGS. 2A and 2B, thinner membrane, after the initial burst) is listed as “approximately sixty”. Further, under “FIGS. 3A and 3B, membrane twice the thickness”, the “Release profile with thicker polymer overcoat compared with thinner membrane” value is “initial release of PGE-1 is delayed and the overall amount of PGE-1 eluted from the stents 12 over time is reduced”. The “PGE-1 Released (%)” value (Study 1, 73 days, expanded stent coated with 100 μg PGE-1, PBS pH 7.4, ambient temperature) was found to be 82%; the “PGE-1 Released (%)” value (Study 1, 73 days, expanded stent coated with 250 μg PGE-1, PBS pH 7.4, ambient temperature) is on record as 83%; the “PGE-1 Released (%)” value (Study 1, 73 days, unexpanded stent coated with 100 μg PGE-1, PBS pH 7.4, ambient temperature) amounted to 37%; the “PGE-1 Released (%)” value (Study 1, 73 days, unexpanded stent coated with 250 μg PGE-1, PBS pH 7.4, ambient temperature) amounted to 46%; the “PGE-1 Released (%)” value (Study 2 (membrane twice the thickness), 35 days, expanded stent coated with 100 μg PGE-1, PBS pH 7.4) was 71%; the “PGE-1 Released (%)” value (Study 2 (membrane twice the thickness), 35 days, expanded stent coated with 250 μg PGE-1, PBS pH 7.4) is given as 26%. The “PGE-1 Released (%)” value by setting is: (Study 2 (membrane twice the thickness), 35 days, unexpanded stent coated with 100 μg PGE-1, PBS pH 7.4) 19%; (Study 2 (membrane twice the thickness), 35 days, unexpanded stent coated with 250 μg PGE-1, PBS pH 7.4) 26%.
